One assay addresses AMPK (A2/B1/G3) (Homo sapiens, UniProt P54646+Q9UGI9+Q9Y478). Kind of assay: AMPK kinase binding activity in activation mode (AC50). Type of assay: biochemical.
Another assay deals with AMPK (A2/B2/G3) (Homo sapiens, UniProt O43741+P54646+Q9UGI9). Described as above. It counts as biochemical. The text has this: In Vitro AMPK Kinase Inhibition Experiments
Chain of AMPK (A2/B2/G3) (P54646 whole entry): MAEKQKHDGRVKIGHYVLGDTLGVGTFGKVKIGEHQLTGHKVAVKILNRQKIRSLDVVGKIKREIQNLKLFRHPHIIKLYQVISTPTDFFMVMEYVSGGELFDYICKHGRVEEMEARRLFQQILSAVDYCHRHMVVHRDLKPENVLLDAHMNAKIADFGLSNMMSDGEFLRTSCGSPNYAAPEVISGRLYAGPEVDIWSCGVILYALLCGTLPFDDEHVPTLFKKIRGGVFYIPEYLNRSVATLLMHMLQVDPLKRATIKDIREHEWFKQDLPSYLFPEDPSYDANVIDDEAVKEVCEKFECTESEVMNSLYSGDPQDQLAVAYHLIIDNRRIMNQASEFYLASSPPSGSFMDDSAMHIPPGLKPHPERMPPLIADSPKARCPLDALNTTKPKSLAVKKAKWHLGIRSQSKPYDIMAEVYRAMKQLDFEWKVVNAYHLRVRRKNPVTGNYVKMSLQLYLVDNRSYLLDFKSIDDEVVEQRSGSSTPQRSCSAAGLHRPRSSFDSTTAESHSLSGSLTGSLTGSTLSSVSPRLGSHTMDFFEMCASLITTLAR
Chain of AMPK (A2/B2/G3) (O43741 whole entry): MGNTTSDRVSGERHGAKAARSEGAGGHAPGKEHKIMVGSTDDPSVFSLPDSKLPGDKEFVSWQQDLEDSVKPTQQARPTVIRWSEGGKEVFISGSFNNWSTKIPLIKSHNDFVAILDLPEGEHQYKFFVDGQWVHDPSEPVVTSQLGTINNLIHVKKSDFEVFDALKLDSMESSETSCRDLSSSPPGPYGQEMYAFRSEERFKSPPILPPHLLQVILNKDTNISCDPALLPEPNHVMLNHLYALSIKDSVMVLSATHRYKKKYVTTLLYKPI
Chain of AMPK (A2/B2/G3) (Q9UGI9 whole entry): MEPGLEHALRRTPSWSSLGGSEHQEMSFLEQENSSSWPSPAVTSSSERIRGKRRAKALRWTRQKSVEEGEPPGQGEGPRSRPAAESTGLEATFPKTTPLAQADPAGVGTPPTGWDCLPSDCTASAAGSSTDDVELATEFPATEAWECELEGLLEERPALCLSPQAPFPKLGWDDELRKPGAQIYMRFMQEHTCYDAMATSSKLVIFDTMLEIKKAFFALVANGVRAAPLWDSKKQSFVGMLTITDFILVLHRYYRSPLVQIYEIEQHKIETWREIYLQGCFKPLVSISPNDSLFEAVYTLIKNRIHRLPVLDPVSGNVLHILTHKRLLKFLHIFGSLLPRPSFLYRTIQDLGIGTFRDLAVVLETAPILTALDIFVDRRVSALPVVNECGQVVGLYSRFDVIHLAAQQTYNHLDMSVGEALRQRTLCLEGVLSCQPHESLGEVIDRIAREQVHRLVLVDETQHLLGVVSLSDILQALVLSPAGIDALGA

Chain of AMPK (A2/B1/G3) (P54646 whole entry): as the sequence (P54646 whole entry) above
Chain of AMPK (A2/B1/G3) (Q9Y478 whole entry): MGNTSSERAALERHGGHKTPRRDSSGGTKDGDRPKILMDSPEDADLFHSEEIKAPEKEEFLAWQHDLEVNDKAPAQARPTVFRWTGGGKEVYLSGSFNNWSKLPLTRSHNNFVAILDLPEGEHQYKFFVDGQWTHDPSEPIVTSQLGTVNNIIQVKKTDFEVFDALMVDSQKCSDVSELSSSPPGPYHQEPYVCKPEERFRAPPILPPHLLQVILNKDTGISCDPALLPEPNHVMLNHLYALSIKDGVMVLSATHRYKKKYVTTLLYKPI
Chain of AMPK (A2/B1/G3) (Q9UGI9 whole entry): as the sequence (Q9UGI9 whole entry) above

One may read the AC50 as the concentration giving half of the maximal activity seen. Read a high AC50 as activity only at high concentration. `O=c1[nH]c(-c2c[nH]c3cc(F)c(-c4ccc(C5(O)COC5)cc4)nc23)no1` [Compound I-45, 3-(6-fluoro-5-(4-(3-hydroxyoxetan-3-yl)phenyl)-1H-pyrrolo[3,2-b]pyridin-3-yl)-1,2,4-oxadiazol-5(4H)-one] returned an AC50 at AMPK (A2/B1/G3) of 5000 to 7500 nM.

As for `C[C@@H]1NS(=O)(c2c[nH]c3cc(Cl)c(-c4ccc(C5(O)CCC5)cc4)cc23)=NC1=O` (stereo partly drawn) [Compound I-3, (4S)-1-(6-chloro-5-(4-(1-hydroxycyclobutyl)phenyl)-1H-indol-3-yl)-4-methyl-4,5-dihydro-3H-1l6,2,5-thiadiazol-3-one 1-oxide], on AMPK (A2/B1/G3), the AC50 was 10 to 500 nM.

In the case of `O=C1CN(c2c[nH]c3cc(Cl)c(-c4ccc(C5(O)CCC5)cc4)cc23)S(=O)(=O)N1` [Compound I-76, 5-(6-chloro-5-(4-(1-hydroxycyclobutyl)phenyl)-1H-indol-3-yl)-1,2,5-thiadiazolidin-3-one 1,1-dioxide], the AC50 on AMPK (A2/B2/G3) is 500 to 5000 nM; at AMPK (A2/B1/G3), no more than 10 nM.

`O=c1[nH]c(-c2c[nH]c3cc(F)c(-c4ccc(C5(O)CCC5)cc4)nc23)no1` [Compound I-44, 3-(6-fluoro-5-(4-(1-hydroxycyclobutyl)phenyl)-1H-pyrrolo[3,2-b]pyridin-3-yl)-1,2,4-oxadiazol-5(4H)-one]: at AMPK (A2/B1/G3), the AC50 is 500 to 5000 nM.

With `O=P(O)(O)CSc1c[nH]c2ccc(-c3ccc(C4(O)CCC4)cc3)cc12` [Compound I-48, (((5-(4-(1-hydroxycyclobutyl)phenyl)-1H-indol-3-yl)thio)methyl)phosphonic acid], the AC50 was 500 to 5000 nM on AMPK (A2/B2/G3) and 10 to 500 nM at AMPK (A2/B1/G3).

With `Cc1ccc(N2CC(=O)NS2(=O)=O)cc1Oc1nc2cc(-c3ccc(C4(O)CCC4)cc3)c(Cl)cc2[nH]1` [II-23, 5-(3-((6-chloro-5-(4-(1-hydroxycyclobutyl)phenyl)-1H-benzo[d]imidazol-2-yl)oxy)-4-methylphenyl)-1,2,5-thiadiazolidin-3-one 1,1-dioxide], the AC50 on AMPK (A2/B2/G3) and at AMPK (A2/B1/G3) was 10 to 500 nM each time.

Consider `O=P(O)(O)CSc1c[nH]c2cc(F)c(N3CC[C@H](O)C3)c(F)c12` [Compound I-26, (S)-(((4,6-difluoro-5-(3-hydroxypyrrolidin-1-yl)-1H-indol-3-yl)thio)methyl) phosphonic acid], for which the figures for the AC50 at AMPK (A2/B2/G3) and at AMPK (A2/B1/G3) were 500 to 5000 nM and 10 to 500 nM, respectively.

`O=P(O)(O)CSc1c[nH]c2cc(F)c(-c3ccc(C4(O)CCC4)cc3)cc12` [Compound I-47, (((6-fluoro-5-(4-(1-hydroxycyclobutyl)phenyl)-1H-indol-3-yl)thio)methyl)phosphonic acid]: the values for the AC50 on AMPK (A2/B2/G3) and on AMPK (A2/B1/G3) were 500 to 5000 nM and 10 to 500 nM, respectively.

Take `Cc1cc2c(cc1Oc1nc3nc(-c4ccc(C5(O)CCC5)cc4)c(Cl)cc3[nH]1)B(O)OC2` [II-26, 6-((6-chloro-5-(4-(1-hydroxycyclobutyl)phenyl)-1H-imidazo[4,5-b]pyridin-2-yl)oxy)-5-methylbenzo[c][1,2]oxaborol-1(3H)-ol]: the AC50 on AMPK (A2/B2/G3) was 10 to 500 nM; at AMPK (A2/B1/G3), no more than 10 nM.

As to “1-(6-chloro-5-(4-(1- hydroxycyclobutyl) phenyl)- 1H-indol-3-yl)-4-methyl-4,5- dihydro-3H-1l6,2,5- thiadiazol-3-one 1-oxide (racemic) [Compound I-2, 1-(6-chloro-5-(4-(1-hydroxycyclobutyl)phenyl)-1H-indol-3-yl)-4-methyl-4,5-dihydro-3H-1l6,2,5-thiadiazol-3-one 1-oxide (racemic)]”, the AC50 at AMPK (A2/B1/G3) is 10 to 500 nM.

As for `Cc1ccc(N2CC(=O)NS2(=O)=O)cc1Oc1nc2cc(-c3ccc(C4(O)CCC4)cc3)c(F)cc2[nH]1` [II-22, 5-(3-((6-fluoro-5-(4-(1-hydroxycyclobutyl)phenyl)-1H-benzo[d]imidazol-2-yl)oxy)-4-methylphenyl)-1,2,5-thiadiazolidin-3-one 1,1-dioxide], the AC50 at AMPK (A2/B2/G3) and at AMPK (A2/B1/G3) was 10 to 500 nM throughout.

Consider `O=P(O)(O)CSc1c[nH]c2cc(F)c(-c3ccc(N4CC[C@H](O)C4)cc3)cc12` [Compound I-24, (S)-(((6-fluoro-5-(4-(3-hydroxypyrrolidin-1-yl)phenyl)-1H-indol-3-yl)thio)methyl)phosphonic acid], for which the AC50 on AMPK (A2/B2/G3) was in the range of 500 to 5000 nM; at AMPK (A2/B1/G3), 10 to 500 nM.

With `Cc1ccc(N2CC(=O)NS2(=O)=O)cc1Oc1nc2nc(-c3ccc(C4(O)CCC4)cc3)c(Cl)cc2[nH]1` [II-21, 5-(3-((6-chloro-5-(4-(1-hydroxycyclobutyl)phenyl)-1H-imidazo[4,5-b]pyridin-2-yl)oxy)-4-methylphenyl)-1,2,5-thiadiazolidin-3-one 1,1-dioxide], the AC50 on AMPK (A2/B2/G3) was 5000 to 7500 nM; at AMPK (A2/B1/G3), no more than 10 nM.

For the compound `C[C@H]1NS(=O)(c2c[nH]c3cc(Cl)c(-c4ccc(C5(O)CCC5)cc4)cc23)=NC1=O` (stereo partly drawn) [Compound I-4, (4R)-1-(6-chloro-5-(4-(1-hydroxycyclobutyl)phenyl)-1H-indol-3-yl)-4-methyl-4,5-dihydro-3H-1l6,2,5-thiadiazol-3-one 1-oxide], the AC50 on AMPK (A2/B1/G3) lay in the range of 10 to 500 nM.

As to `O=P(O)(O)CSc1c[nH]c2cc(F)c(-c3ccc(N4CC[C@H](O)C4)cc3)c(F)c12` [Compound I-25, (S)-(((4,6-difluoro-5-(4-(3-hydroxypyrrolidin-1-yl)phenyl)-1H-indol-3-yl)thio)methyl)phosphonic acid], the values for the AC50 on AMPK (A2/B2/G3) and at AMPK (A2/B1/G3) were 500 to 5000 nM and 10 to 500 nM, respectively.

Regarding `O=P(O)(O)CSc1c[nH]c2cc(F)c(-c3ccc(C4(O)CCC4)cc3)c(F)c12` [Compound I-46, (((4,6-difluoro-5-(4-(1-hydroxycyclobutyl)phenyl)-1H-indol-3-yl)thio)methyl)phosphonic acid], the AC50 is 500 to 5000 nM at AMPK (A2/B2/G3) and 10 to 500 nM on AMPK (A2/B1/G3).

`O=c1[nH]c(-c2c[nH]c3ncc(-c4ccc(C5(O)CCC5)cc4)cc23)no1` [Compound I-9, 3-(5-(4-(1-hydroxycyclobutyl)phenyl)-1H-pyrrolo[2,3-b]pyridin-3-yl)-1,2,4-oxadiazol-5(4H)-one] returned an AC50 on AMPK (A2/B1/G3) of 10 to 500 nM.

With `OB1OCc2ccc(-c3c[nH]c4cc(Cl)c(-c5ccc(C6(O)CCC6)cc5)cc34)cc21` [Compound I-75, 6-(6-chloro-5-(4-(1-hydroxycyclobutyl)phenyl)-1H-indol-3-yl)benzo[c][1,2]oxaborol-1(3H)-ol], the AC50 on AMPK (A2/B2/G3) and on AMPK (A2/B1/G3) was 500 to 5000 nM throughout.

For the origin of these results see patent US20250388571A1, “AMP-ACTIVATED PROTEIN KINASE MODULATOR COMPOUNDS AND USES THEREOF” (Biolexis Therapeutics, Inc., priority 2024, published 2025).
